Values after ≈ are worked out from the molar mass of the structure shown. Where two headings read alike, the source gives them in different places.
Assays:
Type in all cases: cell-based, Mycobacterium tuberculosis
[1] = tested on: Fluoroquinolone resistant strain derived from H37Rv Mtb, gyrA mutant (D94N)
[2] = tested on: Isoniazid resistant strain ACTCC35822
[3] = tested on: Rifampicin resistant strain derived from H37Rv Mtb, ropB mutant (S522L)
[4] = tested on: Rifampicin resistant strain ACTCC35838; assay: microbe, parasite or virus in culture; conditions: read-out: MIC RIF res2
[5] = tested on: Isoniazid resistant strain derived from H37Rv Mtb, katG mutant (Y155* = truncation)

| Compound | MIC FQ res [1] [µM] | MIC INH res2 [2] [µM] | MIC RIF res1 [3] [µM] | MIC ([4]; Mycobacterium tuberculosis) [µM] | MIC INH res1 [5] [µM] | MIC INH res2 ([2]; ACTCC35822) [µM] | MIC [4] [µM] |
| --- | --- | --- | --- | --- | --- | --- | --- |
| NNC(=O)c1ccncc1 [INH, Isoniazid] | 0.34 (≈ 0.0466 µg/mL) | >200 | 0.160 (≈ 0.0219 µg/mL) | 0.37 (≈ 0.0507 µg/mL) | >200 |  |  |
| C[C@H]1COc2c(N3CCN(C)CC3)c(F)cc3c(=O)c(C(=O)O)cn1c23 [LEV, Levoflaxacin] | 91 (≈ 32.9 µg/mL) |  | 3.43 (≈ 1.24 µg/mL) |  | 3.97 (≈ 1.43 µg/mL) | 5.83 (≈ 2.11 µg/mL) | 3.83 (≈ 1.38 µg/mL) |
| Cc1cn2c(C(=O)NCc3ccc(N4CCN(c5ccc(C(F)(F)F)cn5)CC4)c(F)c3)c(C)nc2s1 [ND-11543, N-(3-fluoro-4-(4-(5-(trifluoromethyl)pyridin-2-yl)piperazin-1-yl)benzyl)-2,6-dimethylimidazo[2,1-b]thiazole-5-carboxamide] | 0.010 (≈ 0.00533 µg/mL) | 0.0047 (≈ 0.0025 µg/mL) | 0.0017 (≈ 0.000905 µg/mL) | 0.0057 (≈ 0.00304 µg/mL) | 0.012 (≈ 0.00639 µg/mL) |  |  |
| Cc1cn2c(C(=O)NCc3ccc(N4CCS(=O)(=O)CC4)c(F)c3)c(C)nc2s1 [ND-11903, N-(4-(1,1-Dioxidothiomorpholino)-3-fluorobenzyl)-2,6-dimethylimidazo[2,1-b]thiazole-5-carboxamide] | 3.2 (≈ 1.4 µg/mL) | 5.0 (≈ 2.18 µg/mL) | 2.9 (≈ 1.27 µg/mL) | 7 (≈ 3.06 µg/mL) | 6.5 (≈ 2.84 µg/mL) |  |  |
| CCc1nc2sc(C)cn2c1C(=O)NCc1ccc(Oc2cccc(C(F)(F)F)c2)nc1 [ND-12024, 6-Ethyl-2-methyl-N-((6-(3-(trifluoromethyl)phenoxy)yridine-3-yl)methyl)imidazo[2,1-b]thiazole-5-carboxamide] | 0.40 (≈ 0.184 µg/mL) | 0.22 (≈ 0.101 µg/mL) | 0.047 (≈ 0.0216 µg/mL) | 0.13 (≈ 0.0599 µg/mL) | 0.49 (≈ 0.226 µg/mL) |  |  |
| CCc1nc2ccc(Cl)cn2c1C(=O)NCc1ccc(N2CCC(c3ccc(OC(F)(F)F)cc3)CC2)cc1 [Q203] | 0.0058 (≈ 0.00323 µg/mL) | 0.0038 (≈ 0.00212 µg/mL) | 0.0030 (≈ 0.00167 µg/mL) | 0.0056 (≈ 0.00312 µg/mL) | 0.0074 (≈ 0.00412 µg/mL) |  |  |
| CO[C@H]1/C=C/O[C@@]2(C)Oc3c(C)c(O)c4c(O)c(c(/C=N/N5CCN(C)CC5)c(O)c4c3C2=O)NC(=O)/C(C)=C\C=C\[C@H](C)[C@H](O)[C@@H](C)[C@@H](O)[C@@H](C)[C@H](OC(C)=O)[C@@H]1C [RIF, Rifampicin] | 0.043 (≈ 0.0354 µg/mL) | 0.013 (≈ 0.0107 µg/mL) | 3.2 (≈ 2.63 µg/mL) | > 50 | 0.027 (≈ 0.0222 µg/mL) |  |  |

Source: publication PMC6944458, “Intracellular and in vivo evaluation of imidazo[2,1-b]thiazole-5-carboxamide anti-tuberculosis compounds” (PLoS ONE, 2020)
